In patent EP1437348A1, “6-methyl-2,4-diamino-pyrimidine derivatives, process for preparation, compositions containing them and their uses as basic neutralising agents” (L'OREAL, priority 2003, dated 2004):
≈ marks a conversion by molar mass, not a printed value. Read-outs that look alike come from different tables or passages of the source.

Legend:
[1] = Ionisation constants by potentiometric titration; type: physicochemical; settings: read-out: pKa expérimental
Experimental: Les constantes d'ionisation sont déterminées expérimentalement par titrage potentiométrique suivant les conditions opératoires décrites ci-dessous et évaluées par le logiciel de prédiction ACD/pK DB, Version 5.12.
Conditions opératoires du titrage potentiométrique • Matériel utilisé : (Radiometer-Tacussel) : • titrateur TIM 900 • passeur d'échantillons SAC 90 • logiciel Tim Talk 9 • - Prise d'essai : 10^-4 mole • - Mise en solution : (solubilisation avec passeur d'échantillons) • 5 ml du mélange DMSO 70 / Ethanol 10 / Eau 20 (agitation 3 minutes avec barbotage d'azote) • 10 ml d'une solution de NaCl 0.225M dans eau 80 / DMSO 20 (agitation 3 minutes avec barbotage d'azote) • - Méthode de titrage : • Etalonnage de l'électrode entre pH4 et pH10 • Titrage direct par NaOH 1N ou après ajout d'HCl 1N • Détection d'inflexion avec ajout continu du titrant • vitesse d'addition mini : 1%/min • vitesse d'addition maxi : 1%/min • Flux d'azote à la surface de la solution pendant le titrage • - Calculs : • 2 fonctions polynomiales sont utilisées pour obtenir le pKa dans l'eau en milieu NaCl 0.15M : • pour les fonctions acides : pKaH2O = -0,0208(pKasolvant)^2 + 1,257pKasolvant - 1,6 • pour les fonctions basiques :pKaH2O = -0,0208(pKasolvant)^2 + 1,257pKasolvant - 0,75

Pseudomonas aeruginosa [2] = assay: Minimal inhibitory concentration (CMI), Alamar Blue broth method; type: cell-based; settings: ATCC9027, ATCC #9027, lowest concentration with growth inhibition ≥ 90%, 16 h contact at 37°C, read-out: CMI P.aeruginosa
Description: (§1) La méthode de détermination de l'activité anti-microbienne des composés selon l'invention fait intervenir la mesure de la Concentration Minimale Inhibitrice (CMI) vis-à-vis de 2 bactéries gram- (E. coli et P. aeruginosa), d'une bactérie gram+ (S. aureus) et d'une levure (C. albicans). Cette méthode a été effectuée selon la méthode décrite dans les articles suivants: - Baker C.N., Banerjee S.N. and Tenover F.C. : Evaluation of Alamar colorimetric MIC Method for antimicrobial susceptibility testing of gram-negative bacteria. J. Clin. Microbiol. (1994), 32, 1261-1267; - Baker C.N. and Tenover F.C. : Evaluation of Alamar colorimetric broth microdilution susceptibility testing method for staphylococci and enterococci. J. Clin. Microbiol. (1996), 34, 2654-2659. Les souches bactériennes utilisées au départ sous forme de disques lyophilisés calibrés sont réhydratées en suivant les indications du fournisseur (Fisher Scientific S.A.)
(§2) Les souches sont ensemencées dans du milieu Trypto-caseine-soja. La mise en contact du composé à tester solubilisé dans l'eau, avec les souches en phase de croissance s'effectue en milieu liquide. Après 16 heures de contact du composé avec les bactéries (37°C), de l'Alamar Blue est ajouté comme indicateur métabolique de la viabilité de cellules variées et de bactéries. La réduction de l'indication est proportionnelle à l'activité métabolique des bactéries. A l'issue de l'incubation d'une durée de 2h (sauf pour C. albicans pour laquelle l'incubation est de 4h), l'activité métabolique des bactéries est évaluée par une lecture en absorbance ou en fluorescence. En fluorescence, les lectures sont réalisées à 544nm (Excitation) et à 590nm (Emission). Les composés les plus actifs sont sélectionnés et un effet dose (8 concentrations) est ensuite réalisé comme précédemment. La Concentration Minimale Inhibitrice (C.M.I.) a alors été déterminée comme étant la concentration la plus faible du composé testé pour laquelle était observée une inhibition de croissance de la bactérie ou de la levure ≥ 90%.

Escherichia coli [3] = assay: as above; type: cell-based; settings: ATCC8739, ATCC #8739, lowest concentration with growth inhibition ≥ 90%, 16 h contact at 37°C, read-out: CMI E.coli
Description: as §1, §2

Candida albicans [4] = assay: as above; type: cell-based; settings: ATCC10231, ATCC #10231, lowest concentration with growth inhibition ≥ 90%, 16 h contact at 37°C
Description: as §1, §2

Staphylococcus aureus = assay: as above; type: cell-based; settings: ATCC6538, ATCC #6538, lowest concentration with growth inhibition ≥ 90%, 16 h contact at 37°C, read-out: CMI S.aureus
Description: as §1, §2

Pseudomonas aeruginosa [5] = assay: Challenge test (artificial contamination) in cosmetic supports; type: cell-based; settings: inoculum about 10^6 germes/gramme, sensitivity threshold 200 UFC
Description: (§3) La mesure de la Concentration Minimale Inhibitrice (C.M.I.) développée ci-dessus ne peut être utilisée avec fiabilité pour les moisissures; or les moisissures peuvent également poser de graves problèmes dans la conservation des produits cosmétiques. En sachant que l'activité d'un composé diminue lorsqu'il est introduit dans une formule et que la méthode de la CMI se fait après dilution du composé dans l'eau, l'efficacité anti-microbienne des composés de formule (I) a été évaluée par la méthode du Challenge Test ou contamination artificielle après avoir introduit lesdits composés dans des supports cosmétiques (lotion, émulsions huile-dans-eau et eau-dans-huile). La méthode du challenge-test consiste en une contamination artificielle de l'échantillon par des souches microbiennes de collection (bactéries, levures et moisissures) et en une évaluation du nombre de micro-organismes revivifiables sept jours après l'inoculation. Afin de mettre en évidence l'effet d'un composé de formule (I), l'activité anti-microbienne d'une formule cosmétique contenant 0.25% de 4 methyl-pipéridine-1-yl-pyrimidine-2-ylamine a été comparée avec la même formule seule, après inoculation d'environ 10^6 germes/gramme de produit cosmétique.

Escherichia coli [6] = assay: as above; type: cell-based; settings: inoculum about 10^6 germes/gramme, sensitivity threshold 200 UFC
Description: as §3

Candida albicans [7] = assay: as above; type: cell-based; settings: inoculum about 10^6 germes/gramme, sensitivity threshold 200 UFC
Description: as §3

Aspergillus niger = assay: as above; type: cell-based; settings: inoculum about 10^6 germes/gramme, sensitivity threshold 200 UFC
Description: as §3

Enterococcus faecalis = assay: as above; type: cell-based; settings: inoculum about 10^6 germes/gramme, sensitivity threshold 200 UFC
Description: as §3

[8] = water, nacl 0.15m, dans l'eau, NaCl 0,15M, reference molecules entered in the database used for the prediction
[9] = Emulsion démaquillante huile dans eau + 0.25% compound
[10] = Emulsion eau dans huile + 0.250% compound
[11] = function NH^+/N (pyrimidine motif), pKa in water, NaCl 0.15M, obtained from the solvent pKa by a polynomial function

Row | Structure (SMILES) | MIC (Pseudomonas aeruginosa [2]) | MIC (Escherichia coli [3]) | MIC (Candida albicans [4]) | MIC (Staphylococcus aureus) | further results
1 | Nc1ncccn1 [2-aminopyrimidine, reference compound] | – | – | – | – | pKa [1, 8]: 3.9
2 | Nc1ccncn1 [4-aminopyrimidine, reference compound] | – | – | – | – | pKa [1, 8]: 6
3 | Cc1cc(NCc2ccco2)nc(N)n1 [Comparatif (DE 3717480), reference compound] | > 10000 µg/mL | > 10000 µg/mL | > 10000 µg/mL | 626 µg/mL (≈ 3.06 mM) | –
4 | Nc1nc(N2CCCCC2)cc(C(F)(F)F)n1 [Comparatif (DE 19917784), reference compound] | > 5000 µg/mL | > 5000 µg/mL | > 5000 µg/mL | > 5000 µg/mL | –
5 | CO[Si](C)(C)CCCCNc1cc(C)nc(N)n1 [Composé A, 4-N-[4-(méthoxy-dimethylsilyl)-butyl]-6-methyl-pyrimidine - 2,4-diamine] | 156 µg/mL (≈ 0.581 mM) | 78 µg/mL (≈ 0.291 mM) | 156 µg/mL (≈ 0.581 mM) | 78 µg/mL (≈ 0.291 mM) | –
6 | Cc1cc(NCC2CCNCC2)nc(N)n1 [Composé B, 4-N-[4-piperidinylmethyl]-6-methyl-pyrimidine-2,4-diamine] | 250 µg/mL (≈ 1.13 mM) | 1250 µg/mL (≈ 5.65 mM) | 5000 µg/mL (≈ 22.6 mM) | 2500 µg/mL (≈ 11.3 mM) | –
7 | Cc1cc(NC[C@@H]2CCCN2)nc(N)n1 [Composé C] | 5000 µg/mL (≈ 24.1 mM) | 5000 µg/mL (≈ 24.1 mM) | 2500 µg/mL (≈ 12.1 mM) | 2500 µg/mL (≈ 12.1 mM) | –
8 | Cc1cc(N2CCCN(CCCN3CCCC3)CC2)nc(N)n1 [Composé D, 4-methyl-6-[4-(3-pyrrolidin-1-yl-propyl)-[1,4]diazepan-1-yl]-pyrimidin-2-ylamine] | > 5000 µg/mL | 5000 µg/mL (≈ 15.7 mM) | – | 5000 µg/mL (≈ 15.7 mM) | –
9 | Cc1cc(N2CCc3cc(O)c(O)cc3C2)nc(N)n1 [Composé E, 2-(2-amino-6-methyl-pyrimidin-4-yl)-1,2,3,4-tetrahydro-isoquinoline-6,7-diol] | 5000 µg/mL (≈ 18.4 mM) | 625 µg/mL (≈ 2.3 mM) | 1250 µg/mL (≈ 4.59 mM) | 1250 µg/mL (≈ 4.59 mM) | –
10 | Cc1cc(N2CCN(CCN(C)C)CC2)nc(N)n1 [Composé F, 4-[4-(2-dimethylamino-ethyl)-piperazin-1-yl]-6-methyl-pyrimidin-2-ylamine] | > 5000 µg/mL | 2500 µg/mL (≈ 9.46 mM) | 5000 µg/mL (≈ 18.9 mM) | 5000 µg/mL (≈ 18.9 mM) | –
11 | Cc1cc(NCC(C)(C)N)nc(N)n1 [Composé G, N4-(2-amino-2-methyl-propyl)-6-methyl-pyrimidine-2,4-diamine] | 2500 µg/mL (≈ 12.8 mM) | 2500 µg/mL (≈ 12.8 mM) | 2500 µg/mL (≈ 12.8 mM) | 5000 µg/mL (≈ 25.6 mM) | –
12 | Cc1cc(NCCN2CCNCC2)nc(N)n1 [Composé H, 4-N-(2-piperazin-1-yl-ethyl)-6-methyl-pyrimidine – 2,4-diamine] | 5000 µg/mL (≈ 21.2 mM) | 2500 µg/mL (≈ 10.6 mM) | 2500 µg/mL (≈ 10.6 mM) | 1250 µg/mL (≈ 5.29 mM) | –

Now from value to compound, other results behind:

Row | MIC (Pseudomonas aeruginosa [2]) | MIC (Escherichia coli [3]) | MIC (Candida albicans [4]) | MIC (Staphylococcus aureus) | Structure (SMILES) | further results
13 | 2500 µg/mL (≈ 11.5 mM) | 1250 µg/mL (≈ 5.73 mM) | 625 µg/mL (≈ 2.86 mM) | 625 µg/mL (≈ 2.86 mM) | Cc1cc(NCc2ccc(C)o2)nc(N)n1 [Composé I, 4-N-(5-methyl-furan-2-ylmethyl)---6-methyl-pyrimidine – 2,4-diamine] | –
14 | > 5000 µg/mL | 2500 µg/mL (≈ 8.61 mM) | 5000 µg/mL (≈ 17.2 mM) | 5000 µg/mL (≈ 17.2 mM) | Cc1cc(N2CCN(C3CCN(C)CC3)CC2)nc(N)n1 [Composé J, 4-methyl-6-[4-(1-methyl-piperidin-4-yl)-piperazin-1-yl]-pyrimidin-2-ylamine] | –
15 | > 5000 µg/mL | 2500 µg/mL (≈ 9.21 mM) | 625 µg/mL (≈ 2.3 mM) | 5000 µg/mL (≈ 18.4 mM) | Cc1cc(N2CCN(c3ncccn3)CC2)nc(N)n1 [Composé K, 4-methyl-6-(4-pyrimidin-2-yl-piperazin-1-yl)-pyrimidin-2-ylamine] | –
16 | 2500 µg/mL (≈ 10 mM) | 2500 µg/mL (≈ 10 mM) | 1250 µg/mL (≈ 5.01 mM) | 2500 µg/mL (≈ 10 mM) | Cc1cc(NCC2CCCC(CN)C2)nc(N)n1 (stereo not drawn) [Composé L, 4-N-(3-aminomethyl-cyclohexylmethyl)-6-methyl-pyrimidine-2,4-diamine] | –
17 | 5000 µg/mL (≈ 26 mM) | 5000 µg/mL (≈ 26 mM) | 625 µg/mL (≈ 3.25 mM) | 5000 µg/mL (≈ 26 mM) | Cc1cc(N2CCCCC2)nc(N)n1 [Composé M, 4-methyl-6-pipéridine-1-yl-pyrimidine-2-ylamine] | Nombre d'UFC / gramme de produit après 7 jours de contact germes / produit (Pseudomonas aeruginosa [5]; [9]): <200 UFC / gramme de produit; Nombre d'UFC / gramme de produit après 7 jours de contact germes / produit (Pseudomonas aeruginosa [5]; [10]): <200 UFC / gramme de produit; Nombre d'UFC / gramme de produit après 7 jours de contact germes / produit (Pseudomonas aeruginosa [5]; Lotion + 0.25% compound): <200 UFC / gramme de produit; Nombre d'UFC / gramme de produit après 7 jours de contact germes / produit (Escherichia coli [6]; [9]): <200^2 UFC / gramme de produit; Nombre d'UFC / gramme de produit après 7 jours de contact germes / produit (Escherichia coli [6]; [10]): <200^2 UFC / gramme de produit; Nombre d'UFC / gramme de produit après 7 jours de contact germes / produit (Escherichia coli [6]; Lotion + 0.25% compound): <200^2 UFC / gramme de produit; Nombre d'UFC / gramme de produit après 7 jours de contact germes / produit (Candida albicans [7]; [9]): <200 UFC / gramme de produit; Nombre d'UFC / gramme de produit après 7 jours de contact germes / produit (Candida albicans [7]; [10]): <200 UFC / gramme de produit; Nombre d'UFC / gramme de produit après 7 jours de contact germes / produit (Candida albicans [7]; Lotion + 0.25% compound): <200 UFC / gramme de produit; Nombre d'UFC / gramme de produit après 7 jours de contact germes / produit (Aspergillus niger; [10]): 400 UFC / gramme de produit; Nombre d'UFC / gramme de produit après 7 jours de contact germes / produit (Aspergillus niger; Lotion + 0.25% compound): 400 UFC / gramme de produit; Nombre d'UFC / gramme de produit après 7 jours de contact germes / produit (Enterococcus faecalis; [9]): <200 UFC / gramme de produit; Nombre d'UFC / gramme de produit après 7 jours de contact germes / produit (Enterococcus faecalis; Lotion + 0.25% compound): 400 UFC / gramme de produit; pKa [1, 11]: 8.35
18 | 2500 µg/mL (≈ 12 mM) | 310 µg/mL (≈ 1.49 mM) | 160 µg/mL (≈ 0.768 mM) | 630 µg/mL (≈ 3.02 mM) | CCCCCCNc1cc(C)nc(N)n1 [Composé N, 4-N-Hexyl-6-methyl-pyrimidine-2,4-diamine] | pKa [1, 11]: 8.35
19 | > 5000 µg/mL | > 5000 µg/mL | 1250 µg/mL (≈ 5.43 mM) | > 5000 µg/mL | COc1cccc(Nc2cc(C)nc(N)n2)c1 [reference compound] | –
